Reference: article PMC12670405, “Second-Generation AURKA-Targeting PROTACs: Structural Optimization toward in Vivo Degradation in Neuroblastoma” (Journal of Medicinal Chemistry, 2025)

Experiments:
Assay in all cases: KINOMEscan scanMAX
Type in all cases: binding
Conditions in all cases: read-out: Percent Control
PRP4 = molecular target: T1, PRP4 (Homo sapiens, UniProt Q13523)
T1 construct: purchased Eurofins Discovery (DiscoverX KINOMEscan scanMAX)
Experimental: (§1) The kinome-wide binding assay was performed by Eurofins Discovery using the scanMAX screening platform. More information can be found on the Eurofins Discovery Web site.

INSRR = molecular target: T2, INSRR (Homo sapiens, UniProt P14616)
T2 construct: purchased Eurofins Discovery (DiscoverX KINOMEscan scanMAX)
Experimental: as §1

PAK7 = molecular target: T3, PAK7 (Homo sapiens, UniProt Q9P286)
T3 construct: purchased Eurofins Discovery (DiscoverX KINOMEscan scanMAX)
Experimental: as §1

DLK = molecular target: T4, DLK (Homo sapiens, UniProt Q12852)
T4 construct: purchased Eurofins Discovery (DiscoverX KINOMEscan scanMAX)
Experimental: as §1

EGFR(T790M) = molecular target: T5, EGFR(T790M) (Homo sapiens, UniProt P00533, T790M)
T5 construct: purchased Eurofins Discovery (DiscoverX KINOMEscan scanMAX)
Experimental: as §1

PFCDPK1(P.falciparum) = molecular target: T6, PFCDPK1(P.falciparum) (Plasmodium falciparum, UniProt P62344)
T6 construct: purchased Eurofins Discovery (DiscoverX KINOMEscan scanMAX)
Experimental: as §1

ACVR2B = molecular target: T7, ACVR2B (Homo sapiens, UniProt Q13705)
T7 construct: purchased Eurofins Discovery (DiscoverX KINOMEscan scanMAX)
Experimental: as §1

DAPK3 = molecular target: T8, DAPK3 (Homo sapiens, UniProt O43293)
T8 construct: purchased Eurofins Discovery (DiscoverX KINOMEscan scanMAX)
Experimental: as §1

ERK2 = molecular target: T9, ERK2 (Homo sapiens, UniProt P28482)
T9 construct: purchased Eurofins Discovery (DiscoverX KINOMEscan scanMAX)
Experimental: as §1

TESK1 = molecular target: T10, TESK1 (Homo sapiens, UniProt Q15569)
T10 construct: purchased Eurofins Discovery (DiscoverX KINOMEscan scanMAX)
Experimental: as §1

FLT3(N841I) = molecular target: T11, FLT3(N841I) (Homo sapiens, UniProt P36888, N841I)
T11 construct: purchased Eurofins Discovery (DiscoverX KINOMEscan scanMAX)
Experimental: as §1

PRKD3 = molecular target: T12, PRKD3 (Homo sapiens, UniProt O94806)
T12 construct: purchased Eurofins Discovery (DiscoverX KINOMEscan scanMAX)
Experimental: as §1

PIK3CA(M1043I) = molecular target: T13, PIK3CA(M1043I) (Homo sapiens, UniProt P42336, M1043I)
T13 construct: purchased Eurofins Discovery (DiscoverX KINOMEscan scanMAX)
Experimental: as §1

SGK3 = molecular target: T14, SGK3 (Homo sapiens, UniProt Q96BR1)
T14 construct: purchased Eurofins Discovery (DiscoverX KINOMEscan scanMAX)
Experimental: as §1

AURKB = molecular target: T15, AURKB (Homo sapiens, UniProt Q96GD4)
T15 construct: purchased Eurofins Discovery
Experimental: as §1

RIPK2 = molecular target: T16, RIPK2 (Homo sapiens, UniProt O43353)
T16 construct: purchased Eurofins Discovery (DiscoverX KINOMEscan scanMAX)
Experimental: as §1

PFTAIRE2 = molecular target: T17, PFTAIRE2 (Homo sapiens, UniProt Q96Q40)
T17 construct: purchased Eurofins Discovery (DiscoverX KINOMEscan scanMAX)
Experimental: as §1

FGR = molecular target: T18, FGR (Homo sapiens, UniProt P09769)
T18 construct: purchased Eurofins Discovery (DiscoverX KINOMEscan scanMAX)
Experimental: as §1

DRAK2 = molecular target: T19, DRAK2 (Homo sapiens, UniProt O94768)
T19 construct: purchased Eurofins Discovery (DiscoverX KINOMEscan scanMAX)
Experimental: as §1

HUNK = molecular target: T20, HUNK (Homo sapiens, UniProt P57058)
T20 construct: purchased Eurofins Discovery (DiscoverX KINOMEscan scanMAX)
Experimental: as §1

JNK2 = molecular target: T21, JNK2 (Homo sapiens, UniProt P45984)
T21 construct: purchased Eurofins Discovery (DiscoverX KINOMEscan scanMAX)
Experimental: as §1

PRKG1 = molecular target: T22, PRKG1 (Homo sapiens, UniProt Q13976)
T22 construct: purchased Eurofins Discovery (DiscoverX KINOMEscan scanMAX)
Experimental: as §1

[1] = molecular target: T23, RPS6KA4(Kin.Dom.1-N-terminal) (Homo sapiens, UniProt O75676)
T23 construct: RPS6KA4(Kin.Dom.1-N-terminal); purchased Eurofins Discovery (DiscoverX KINOMEscan scanMAX)
Experimental: as §1

CDKL5 = molecular target: T24, CDKL5 (Homo sapiens, UniProt O76039)
T24 construct: purchased Eurofins Discovery (DiscoverX KINOMEscan scanMAX)
Experimental: as §1

TBK1 = molecular target: T25, TBK1 (Homo sapiens, UniProt Q9UHD2)
T25 construct: purchased Eurofins Discovery (DiscoverX KINOMEscan scanMAX)
Experimental: as §1

PFTK1 = molecular target: T26, PFTK1 (Homo sapiens, UniProt O94921)
T26 construct: purchased Eurofins Discovery (DiscoverX KINOMEscan scanMAX)
Experimental: as §1

NEK5 = molecular target: T27, NEK5 (Homo sapiens, UniProt Q6P3R8)
T27 construct: purchased Eurofins Discovery (DiscoverX KINOMEscan scanMAX)
Experimental: as §1

MTOR = molecular target: T28, MTOR (Homo sapiens, UniProt P42345)
T28 construct: purchased Eurofins Discovery (DiscoverX KINOMEscan scanMAX)
Experimental: as §1

BRK = molecular target: T29, BRK (Homo sapiens, UniProt Q13882)
T29 construct: purchased Eurofins Discovery (DiscoverX KINOMEscan scanMAX)
Experimental: as §1

MET(M1250T) = molecular target: T30, MET(M1250T) (Homo sapiens, UniProt P08581, M1250T)
T30 construct: purchased Eurofins Discovery (DiscoverX KINOMEscan scanMAX)
Experimental: as §1

VEGFR2 = molecular target: T31, VEGFR2 (Homo sapiens, UniProt P35968)
T31 construct: purchased Eurofins Discovery (DiscoverX KINOMEscan scanMAX)
Experimental: as §1

MAPKAPK5 = molecular target: T32, MAPKAPK5 (Homo sapiens, UniProt Q8IW41)
T32 construct: purchased Eurofins Discovery (DiscoverX KINOMEscan scanMAX)
Experimental: as §1

CAMK2D = molecular target: T33, CAMK2D (Homo sapiens, UniProt Q13557)
T33 construct: purchased Eurofins Discovery (DiscoverX KINOMEscan scanMAX)
Experimental: as §1

T22 sequence (Q13976 whole entry): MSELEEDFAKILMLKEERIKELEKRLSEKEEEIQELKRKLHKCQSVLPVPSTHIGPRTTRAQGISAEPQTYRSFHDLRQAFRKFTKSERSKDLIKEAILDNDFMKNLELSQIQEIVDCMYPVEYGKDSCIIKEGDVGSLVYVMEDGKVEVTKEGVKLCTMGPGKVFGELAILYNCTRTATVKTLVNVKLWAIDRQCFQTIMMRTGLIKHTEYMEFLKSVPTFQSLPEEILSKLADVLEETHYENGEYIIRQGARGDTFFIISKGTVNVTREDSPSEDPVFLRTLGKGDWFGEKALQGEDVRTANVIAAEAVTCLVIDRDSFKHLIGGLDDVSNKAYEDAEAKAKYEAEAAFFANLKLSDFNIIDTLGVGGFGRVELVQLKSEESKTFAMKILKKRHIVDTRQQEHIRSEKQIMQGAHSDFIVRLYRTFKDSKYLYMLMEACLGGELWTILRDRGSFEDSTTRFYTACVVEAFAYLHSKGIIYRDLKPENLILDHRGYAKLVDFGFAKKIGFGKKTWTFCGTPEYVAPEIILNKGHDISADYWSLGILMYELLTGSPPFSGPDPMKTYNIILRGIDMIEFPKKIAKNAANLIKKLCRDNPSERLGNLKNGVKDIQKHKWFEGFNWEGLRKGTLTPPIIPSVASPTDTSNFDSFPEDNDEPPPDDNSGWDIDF
T23 sequence (O75676 1-371 limits assumed): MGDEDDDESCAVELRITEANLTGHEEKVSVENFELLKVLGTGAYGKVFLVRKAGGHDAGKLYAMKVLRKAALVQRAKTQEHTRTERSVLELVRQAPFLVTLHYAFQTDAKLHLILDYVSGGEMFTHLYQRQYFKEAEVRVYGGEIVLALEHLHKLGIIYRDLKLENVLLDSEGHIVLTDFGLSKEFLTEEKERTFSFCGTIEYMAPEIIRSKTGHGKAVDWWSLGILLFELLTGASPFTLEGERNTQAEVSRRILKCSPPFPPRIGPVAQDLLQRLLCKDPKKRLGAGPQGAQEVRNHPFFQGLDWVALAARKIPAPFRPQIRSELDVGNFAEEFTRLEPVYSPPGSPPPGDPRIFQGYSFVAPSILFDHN
T4 sequence (Q12852 whole entry): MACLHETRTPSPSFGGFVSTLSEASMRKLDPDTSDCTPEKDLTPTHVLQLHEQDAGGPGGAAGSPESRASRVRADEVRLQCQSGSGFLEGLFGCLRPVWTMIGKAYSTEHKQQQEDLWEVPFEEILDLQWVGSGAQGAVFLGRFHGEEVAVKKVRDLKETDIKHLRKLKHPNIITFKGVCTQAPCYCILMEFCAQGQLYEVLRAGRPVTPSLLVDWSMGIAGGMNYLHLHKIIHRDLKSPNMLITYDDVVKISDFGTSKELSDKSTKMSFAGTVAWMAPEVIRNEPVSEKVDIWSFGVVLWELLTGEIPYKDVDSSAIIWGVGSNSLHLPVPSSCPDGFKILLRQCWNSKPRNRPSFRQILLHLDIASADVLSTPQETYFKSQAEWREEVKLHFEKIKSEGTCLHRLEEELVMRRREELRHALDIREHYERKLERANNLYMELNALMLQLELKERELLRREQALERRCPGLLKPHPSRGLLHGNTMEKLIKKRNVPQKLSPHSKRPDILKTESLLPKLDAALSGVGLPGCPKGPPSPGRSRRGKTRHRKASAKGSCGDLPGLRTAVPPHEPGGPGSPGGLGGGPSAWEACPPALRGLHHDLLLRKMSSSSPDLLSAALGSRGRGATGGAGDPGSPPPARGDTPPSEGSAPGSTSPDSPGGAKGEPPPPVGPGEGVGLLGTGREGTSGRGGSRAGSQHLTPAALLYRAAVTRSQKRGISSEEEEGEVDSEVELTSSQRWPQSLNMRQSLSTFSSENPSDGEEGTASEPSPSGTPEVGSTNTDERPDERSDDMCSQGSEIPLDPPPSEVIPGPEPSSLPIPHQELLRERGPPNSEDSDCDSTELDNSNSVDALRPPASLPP
T3 sequence (Q9P286 whole entry): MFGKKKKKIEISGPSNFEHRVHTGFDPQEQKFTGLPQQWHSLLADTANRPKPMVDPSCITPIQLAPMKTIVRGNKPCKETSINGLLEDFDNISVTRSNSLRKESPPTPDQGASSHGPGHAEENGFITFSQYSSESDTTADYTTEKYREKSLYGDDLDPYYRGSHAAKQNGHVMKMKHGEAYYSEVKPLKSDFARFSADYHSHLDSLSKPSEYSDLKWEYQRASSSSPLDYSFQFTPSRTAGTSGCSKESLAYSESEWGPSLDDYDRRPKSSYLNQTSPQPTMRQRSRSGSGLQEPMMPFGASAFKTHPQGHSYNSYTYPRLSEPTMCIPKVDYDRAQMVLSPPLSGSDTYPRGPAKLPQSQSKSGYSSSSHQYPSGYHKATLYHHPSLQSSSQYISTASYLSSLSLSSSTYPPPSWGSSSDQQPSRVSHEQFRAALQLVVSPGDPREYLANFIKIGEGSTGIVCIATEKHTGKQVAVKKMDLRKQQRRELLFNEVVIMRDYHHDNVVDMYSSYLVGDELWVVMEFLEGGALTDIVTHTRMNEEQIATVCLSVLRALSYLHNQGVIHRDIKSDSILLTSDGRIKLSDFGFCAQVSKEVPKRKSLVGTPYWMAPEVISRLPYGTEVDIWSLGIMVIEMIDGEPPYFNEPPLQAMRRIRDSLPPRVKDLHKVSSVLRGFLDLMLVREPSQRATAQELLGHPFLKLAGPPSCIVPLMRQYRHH
T9 sequence (P28482 whole entry): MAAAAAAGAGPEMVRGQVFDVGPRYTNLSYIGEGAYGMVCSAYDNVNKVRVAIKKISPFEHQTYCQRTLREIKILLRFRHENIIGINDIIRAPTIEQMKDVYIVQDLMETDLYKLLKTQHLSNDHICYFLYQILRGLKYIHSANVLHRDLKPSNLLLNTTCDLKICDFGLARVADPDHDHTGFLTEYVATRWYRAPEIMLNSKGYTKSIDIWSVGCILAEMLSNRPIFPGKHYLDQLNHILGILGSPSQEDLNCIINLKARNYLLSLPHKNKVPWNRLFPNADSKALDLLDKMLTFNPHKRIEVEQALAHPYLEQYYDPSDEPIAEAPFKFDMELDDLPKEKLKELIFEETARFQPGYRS
T32 sequence (Q8IW41 whole entry): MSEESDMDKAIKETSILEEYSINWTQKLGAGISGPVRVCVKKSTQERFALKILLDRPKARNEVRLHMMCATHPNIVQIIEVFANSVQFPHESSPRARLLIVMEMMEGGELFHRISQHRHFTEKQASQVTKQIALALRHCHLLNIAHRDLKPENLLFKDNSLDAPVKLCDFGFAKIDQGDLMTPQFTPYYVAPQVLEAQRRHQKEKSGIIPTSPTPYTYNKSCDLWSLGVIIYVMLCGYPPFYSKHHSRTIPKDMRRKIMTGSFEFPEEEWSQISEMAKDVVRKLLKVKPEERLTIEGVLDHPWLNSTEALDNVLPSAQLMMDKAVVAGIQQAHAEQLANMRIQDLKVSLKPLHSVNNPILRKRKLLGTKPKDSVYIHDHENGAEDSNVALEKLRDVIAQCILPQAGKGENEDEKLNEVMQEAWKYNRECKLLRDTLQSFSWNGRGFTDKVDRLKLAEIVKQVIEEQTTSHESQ
T13 sequence (P42336 whole entry M1043I): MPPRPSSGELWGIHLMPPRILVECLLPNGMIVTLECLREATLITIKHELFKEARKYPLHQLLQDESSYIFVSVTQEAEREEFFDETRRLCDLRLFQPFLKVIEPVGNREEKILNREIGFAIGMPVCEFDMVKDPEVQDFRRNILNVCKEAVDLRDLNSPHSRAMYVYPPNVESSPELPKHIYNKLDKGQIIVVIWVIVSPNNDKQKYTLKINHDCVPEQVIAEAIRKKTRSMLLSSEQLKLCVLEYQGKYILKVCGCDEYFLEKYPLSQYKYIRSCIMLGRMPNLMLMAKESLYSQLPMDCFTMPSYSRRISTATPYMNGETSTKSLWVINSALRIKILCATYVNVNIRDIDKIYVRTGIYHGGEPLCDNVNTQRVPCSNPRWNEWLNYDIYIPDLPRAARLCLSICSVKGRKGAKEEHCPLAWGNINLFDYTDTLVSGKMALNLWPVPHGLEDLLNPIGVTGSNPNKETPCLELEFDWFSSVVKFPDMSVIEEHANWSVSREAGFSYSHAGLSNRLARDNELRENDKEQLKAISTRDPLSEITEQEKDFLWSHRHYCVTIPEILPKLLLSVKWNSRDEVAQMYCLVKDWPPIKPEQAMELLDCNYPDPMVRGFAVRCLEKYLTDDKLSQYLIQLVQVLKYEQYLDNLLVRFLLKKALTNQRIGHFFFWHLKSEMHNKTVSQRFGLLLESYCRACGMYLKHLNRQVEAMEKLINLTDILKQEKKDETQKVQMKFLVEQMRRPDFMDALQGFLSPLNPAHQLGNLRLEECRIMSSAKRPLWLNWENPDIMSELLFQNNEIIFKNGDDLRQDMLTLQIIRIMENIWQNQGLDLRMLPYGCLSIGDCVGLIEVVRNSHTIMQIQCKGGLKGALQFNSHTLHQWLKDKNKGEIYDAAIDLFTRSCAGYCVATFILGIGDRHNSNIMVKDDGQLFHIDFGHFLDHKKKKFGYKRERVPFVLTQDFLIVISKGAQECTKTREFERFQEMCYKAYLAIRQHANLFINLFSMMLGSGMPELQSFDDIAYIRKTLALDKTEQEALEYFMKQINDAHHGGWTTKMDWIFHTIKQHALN
T15 sequence (Q96GD4 whole entry): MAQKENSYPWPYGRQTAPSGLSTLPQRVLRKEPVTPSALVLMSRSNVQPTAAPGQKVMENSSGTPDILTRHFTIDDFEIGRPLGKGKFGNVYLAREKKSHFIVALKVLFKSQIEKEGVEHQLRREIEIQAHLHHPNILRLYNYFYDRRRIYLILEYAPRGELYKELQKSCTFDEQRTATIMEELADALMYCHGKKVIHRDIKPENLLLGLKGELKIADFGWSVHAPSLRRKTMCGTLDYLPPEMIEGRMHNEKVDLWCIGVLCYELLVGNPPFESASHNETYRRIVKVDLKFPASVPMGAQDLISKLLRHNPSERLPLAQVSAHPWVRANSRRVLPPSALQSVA

Cc1cc(Nc2ccc(F)c(CC3(C(=O)N4CCC(F)(CN5CCN(c6ccc(N7CCC(=O)NC7=O)cn6)CC5)CC4)CCN(Cc4cccc(Cl)c4F)CC3)n2)n[nH]1 [SK5527] was tested, and the remaining binding at 0.1 µM (PRP4; 100 nM) was 100%, the remaining binding at 1 µM (PRP4; 1000 nM) was 74% and the remaining binding at 0.1 µM (INSRR; 100 nM) was 97%. The remaining binding at 1 µM (INSRR; 1000 nM) was 90%, the remaining binding at 0.1 µM (PAK7; 100 nM) was 98% and the remaining binding at 1 µM (PAK7; 1000 nM) was 74%. It also gave a remaining binding at 0.1 µM (DLK; 100 nM) of 71%, a remaining binding at 1 µM (DLK; 1000 nM) of 55% and a remaining binding at 0.1 µM (EGFR(T790M); 100 nM) of 92%. The remaining binding at 1 µM (EGFR(T790M); 1000 nM) was 91%, the remaining binding at 0.1 µM (PFCDPK1(P.falciparum); 100 nM) was 87% and the remaining binding at 1 µM (PFCDPK1(P.falciparum); 1000 nM) was 81%. For the same molecule, the remaining binding at 0.1 µM (ACVR2B; 100 nM) was 100%, the remaining binding at 1 µM (ACVR2B; 1000 nM) was 87% and the remaining binding at 0.1 µM (DAPK3; 100 nM) was 100%. The remaining binding at 1 µM (DAPK3; 1000 nM) was 100%, the remaining binding at 0.1 µM (ERK2; 100 nM) was 100% and the remaining binding at 1 µM (ERK2; 1000 nM) was 97%. The remaining binding at 0.1 µM (TESK1; 100 nM) was 66%, the remaining binding at 1 µM (TESK1; 1000 nM) was 83% and the remaining binding at 0.1 µM (FLT3(N841I); 100 nM) was 83%. The remaining binding at 1 µM (FLT3(N841I); 1000 nM) was 76%, the remaining binding at 0.1 µM (PRKD3; 100 nM) was 100% and the remaining binding at 1 µM (PRKD3; 1000 nM) was 100%. For the same molecule, the remaining binding at 0.1 µM (PIK3CA(M1043I); 100 nM) was 100%, the remaining binding at 1 µM (PIK3CA(M1043I); 1000 nM) was 100% and the remaining binding at 0.1 µM (SGK3; 100 nM) was 100%. For the same molecule, the remaining binding at 1 µM (SGK3; 1000 nM) was 88%, the remaining binding at 0.1 µM (AURKB; 100 nM) was 100% and the remaining binding at 1 µM (AURKB; 1000 nM) was 53%. It also gave a remaining binding at 0.1 µM (RIPK2; 100 nM) of 80%, a remaining binding at 1 µM (RIPK2; 1000 nM) of 88% and a remaining binding at 0.1 µM (PFTAIRE2; 100 nM) of 75%. The remaining binding at 1 µM (PFTAIRE2; 1000 nM) was 80%, the remaining binding at 0.1 µM (FGR; 100 nM) was 89% and the remaining binding at 1 µM (FGR; 1000 nM) was 61%. The remaining binding at 0.1 µM (DRAK2; 100 nM) was 100%, the remaining binding at 1 µM (DRAK2; 1000 nM) was 100% and the remaining binding at 0.1 µM (HUNK; 100 nM) was 93%. The remaining binding at 1 µM (HUNK; 1000 nM) was 100%, the remaining binding at 0.1 µM (JNK2; 100 nM) was 67% and the remaining binding at 1 µM (JNK2; 1000 nM) was 74%. For the same molecule, the remaining binding at 0.1 µM (PRKG1; 100 nM) was 92%, the remaining binding at 1 µM (PRKG1; 1000 nM) was 100% and the remaining binding at 0.1 µM ([1]; 100 nM) was 90%. It also gave a remaining binding at 1 µM ([1]; 1000 nM) of 95%, a remaining binding at 0.1 µM (CDKL5; 100 nM) of 94% and a remaining binding at 1 µM (CDKL5; 1000 nM) of 81%. It also gave a remaining binding at 0.1 µM (TBK1; 100 nM) of 99%, a remaining binding at 1 µM (TBK1; 1000 nM) of 85% and a remaining binding at 0.1 µM (PFTK1; 100 nM) of 100%. It also gave a remaining binding at 1 µM (PFTK1; 1000 nM) of 95%, a remaining binding at 0.1 µM (NEK5; 100 nM) of 100% and a remaining binding at 1 µM (NEK5; 1000 nM) of 100%. The remaining binding at 0.1 µM (MTOR; 100 nM) was 100%, the remaining binding at 1 µM (MTOR; 1000 nM) was 100% and the remaining binding at 0.1 µM (BRK; 100 nM) was 92%. It also gave a remaining binding at 1 µM (BRK; 1000 nM) of 88%, a remaining binding at 0.1 µM (MET(M1250T); 100 nM) of 85% and a remaining binding at 1 µM (MET(M1250T); 1000 nM) of 80%. For the same molecule, the remaining binding at 0.1 µM (VEGFR2; 100 nM) was 85%, the remaining binding at 1 µM (VEGFR2; 1000 nM) was 65% and the remaining binding at 0.1 µM (MAPKAPK5; 100 nM) was 85%. The remaining binding at 1 µM (MAPKAPK5; 1000 nM) was 74%, the remaining binding at 0.1 µM (CAMK2D; 100 nM) was 95% and the remaining binding at 1 µM (CAMK2D; 1000 nM) was 93%.
